Measured values: patent US8808706B2, “Arthrospira-based compositions and uses thereof” (Biovite Australia Pty. Ltd., priority 2004, dated 2014)

Test system: Trichophyton mentagrophytes
Assay: Inhibitory test, filter paper disc on newly inoculated plate
Type: cell-based
Details: FIG. 20
Method: Sabouraud's liquid medium was inoculated with the chosen pathogen. The broths were then incubated for one week at 28° C. […] Monographed actives not already in a cream base were mixed with a respective cream base. […] Up to four different discs were placed on a plate. The plate was then incubated for 24-48 hours at the appropriate temperature depending on the pathogen. Photos were then taken at the completion of the 24-48 hours.

SMILES: Clc1ccc(COC(Cn2ccnc2)c2ccc(Cl)cc2Cl)c(Cl)c1 (stereo not shown) [miconazole]
- regrowth into clearance: became encroached by regrowth
